Results reported in ChEMBL document CHEMBL5236619, “Design and Optimization of 1H-1,2,3-Triazole-4-carboxamides as Novel, Potent, and Selective Inverse Agonists and Antagonists of PXR” (J Med Chem, 2022).

Experiments:
[1] = molecular target: T1, PXR (NR1I2) ligand binding domain (Homo sapiens, UniProt O75469); experiment: Inhibition of BODIPY FL vindoline binding to recombinant human GST-tagged PXR LBD (111 to 434 residues) expressed in baculovirus infected insect cells at 10 uM incubated for 1 mins under shaking condition followed by 60 mins under dark condition by TR-FRET assay relative to control; settings: probe BODIPY FL vindoline, time 61 min
T1 sequence (O75469 whole entry): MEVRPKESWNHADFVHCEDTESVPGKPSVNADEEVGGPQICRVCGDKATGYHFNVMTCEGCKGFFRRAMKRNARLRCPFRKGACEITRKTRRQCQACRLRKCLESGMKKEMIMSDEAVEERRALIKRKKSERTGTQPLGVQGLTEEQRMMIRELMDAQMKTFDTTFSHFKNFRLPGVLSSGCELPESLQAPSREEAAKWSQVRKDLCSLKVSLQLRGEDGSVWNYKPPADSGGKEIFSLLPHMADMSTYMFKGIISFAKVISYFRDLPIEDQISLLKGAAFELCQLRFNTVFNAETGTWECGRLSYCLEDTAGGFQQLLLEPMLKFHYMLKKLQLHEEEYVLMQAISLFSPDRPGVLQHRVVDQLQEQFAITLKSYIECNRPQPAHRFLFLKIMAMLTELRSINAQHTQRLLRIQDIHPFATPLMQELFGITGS

PXR (NR1I2) = molecular target: T2, PXR (NR1I2) (Homo sapiens, UniProt O75469); experiment: Inverse agonist activity at human PXR in human HepG2 cells co-expressing luciferase gene under control of CYP3A4 promoter assessed as inhibition in receptor basal activity at 10 uM incubated for 24 hrs by luminescence based analysis relative to control; format: cell-based
T2 sequence (O75469 whole entry): T1 sequence (O75469 whole entry)

[2] = molecular target: T3, Nuclear receptor subfamily 1 group I member 2 (Homo sapiens, UniProt O75469); experiment: Agonist activity at human PXR in human HepG2 cells co-expressing luciferase gene under control of CYP3A4 promoter assessed as transcriptional activation at 30 uM incubated for 24 hrs by luminescence based analysis; format: cell-based; settings: hepg2, 24 h
T3 sequence (O75469 whole entry): T1 sequence (O75469 whole entry)

[3] = molecular target: T3, Nuclear receptor subfamily 1 group I member 2; experiment: Inhibition of BODIPY FL vindoline binding to recombinant human GST-tagged PXR LBD (111 to 434 residues) expressed in baculovirus infected insect cells incubated for 1 mins under shaking condition followed by 60 mins under dark condition by TR-FRET assay; settings: for inhibition (INH): human, 1.017 h, time 61 min
[4] = molecular target: T3, Nuclear receptor subfamily 1 group I member 2; experiment: Inverse agonist activity at human PXR in human HepG2 cells co-expressing luciferase gene under control of CYP3A4 promoter assessed as inhibition in receptor basal activity at 30 uM incubated for 24 hrs by luminescence based analysis; settings: hepg2, 24 h
[5] = molecular target: T3, Nuclear receptor subfamily 1 group I member 2; experiment: Antagonist activity at human PXR in human HepG2 cells co-expressing luciferase gene under control of CYP3A4 promoter assessed as inhibition in rifampicin-induced receptor activation at 30 uM incubated for 24 hrs by luminescence based analysis; format: cell-based; settings: hepg2, 24 h
[6] = molecular target: T3, Nuclear receptor subfamily 1 group I member 2; experiment: Agonist activity at human PXR in human HepG2 cells co-expressing luciferase gene under control of CYP3A4 promoter assessed as transcriptional activation at 10 uM incubated for 24 hrs by luminescence based analysis relative to control
[7] = molecular target: T3, Nuclear receptor subfamily 1 group I member 2; experiment: Agonist activity at human PXR in human HepG2 cells co-expressing luciferase gene under control of CYP3A4 promoter assessed as transcriptional activation incubated for 24 hrs by luminescence based analysis

SMILES	inhibition at 1.017 h, 10 µM [1] [%]	inhibition at 24 h, 10 µM (PXR (NR1I2)) [%]	Activity [2]	inhibition (INH) [3]	INH [4]	inhibition (INH) [5]	activity at 24 h, 10 µM [6] [%]	EC50 [7] [nM]	IC50 [3] [nM]
CCOc1ccc(C(C)(C)C)cc1NC(=O)c1nnn(-c2cc(OC)ccc2OC)c1C	73	118	Not Active						
CCCCOc1ccc(C(C)(C)C)cc1NC(=O)c1nnn(-c2ccncc2)c1C			Not Active	Not Active	Not Active	Not Active			
COc1ccc(OC)c(-n2nnc(C(=O)Nc3cc(C(C)(C)C)ccc3O)c2C)c1	84		Not Active		Not Active	Not Active			
CCCCOc1ccc(C(C)(C)C)cc1NC(=O)c1nnn(-c2ccc(OC)c(OC)c2)c1C				Not Active	Not Active	Not Active			
CCCCOc1ccc(C(C)(C)C)cc1NC(=O)c1nnn(-c2cc(OC)ccc2OC)c1C	90	89	Not Active						
COc1ccc(OC)c(-n2nnc(C(=O)Nc3cccc(N4CCCCC4)c3)c2C)c1	50	36	Not Active			Not Active			
CCCCOc1ccc(C(C)(C)C)cc1NC(=O)c1nnn(-c2cccnc2)c1C	75				Not Active	Not Active			
COc1ccc(OC)c(-n2nnc(C(=O)Nc3cc(C(C)(C)C)ccc3N)c2C)c1				Not Active	Not Active	Not Active	25		
CCCCOc1ccc(C(C)(C)C)cc1NC(=O)c1nnn(-c2ccc3c(c2)OCO3)c1C				Not Active	Not Active	Not Active	43		
COc1ccc(OC)c(-n2nnc(C(=O)Nc3cccc(C)c3)c2C)c1	52				Not Active	Not Active	30		
COc1ccc(OC)c(-n2nnc(C(=O)Nc3cccc(N4CCN(C)CC4)c3)c2C)c1			Not Active	Not Active	Not Active	Not Active			
CCc1cccc(NC(=O)c2nnn(-c3cc(OC)ccc3OC)c2C)c1	49		Not Active		Not Active	Not Active			
CCCOc1ccc(C(C)(C)C)cc1NC(=O)c1nnn(-c2cc(OC)ccc2OC)c1C	79	114	Not Active						
CCCCOc1ccc(C(C)(C)C)cc1NC(=O)c1nnn(-c2ccc(OC)cc2OC)c1C	54				Not Active	Not Active			
CCCCOc1ccc(NC(=O)c2nnn(-c3cc(OC)ccc3OC)c2C)cc1C(C)(C)C		73		Not Active					
COc1ccc(OC)c(-n2nnc(C(=O)Nc3cc(C(C)(C)C)ccc3NC(C)=O)c2C)c1	60				Not Active	Not Active	60		
CCCC(C)Oc1ccc(C(C)(C)C)cc1NC(=O)c1nnn(-c2cc(OC)ccc2OC)c1C (racemic)	90	117	Not Active						

SMILES	inhibition at 1.017 h, 10 µM [1] [%]	inhibition at 24 h, 10 µM (PXR (NR1I2)) [%]	Activity [2]	inhibition (INH) [3]	INH [4]	inhibition (INH) [5]	activity at 24 h, 10 µM [6] [%]	EC50 [7] [nM]	IC50 [3] [nM]
COc1ccc(OC)c(-n2nnc(C(=O)Nc3cccc(N(C)C)c3)c2C)c1	49		Not Active		Not Active	Not Active			
CCCCOc1ccc(C(C)(C)C)cc1NC(=O)c1nnn(-c2c(OC)cccc2OC)c1C					Not Active		45		
CCCCOc1ccc(C(C)(C)C)cc1NC(=O)c1nnn(-c2cc(OC)ccc2Br)c1C	28		Not Active		Not Active	Not Active			
COc1ccc(OC)c(-n2nnc(C(=O)Nc3ccc(N)c(C(C)(C)C)c3)c2C)c1	86				Not Active	Not Active	33		
CCC[C@@H](C)Oc1ccc(C(C)(C)C)cc1NC(=O)c1nnn(-c2cc(OC)ccc2OC)c1C	81	91	Not Active						
CCOc1cc(NC(=O)c2nnn(-c3cc(OC)ccc3OC)c2C)nc(OCC)n1	36		Not Active			Not Active			
COc1ccc(OC)c(-n2nnc(C(=O)Nc3cccc(-n4cccc4)c3)c2C)c1	24		Not Active		Not Active	Not Active			
CCCCOc1ccc(C(C)(C)C)cc1NC(=O)c1nnn(-c2ccc(OC)cc2)c1C			Not Active	Not Active	Not Active	Not Active			
CCCCOc1ccc(C(C)(C)C)cc1NC(=O)c1nnn(-c2cc(OC)ccc2C)c1C	10				Not Active	Not Active	16	1660	
CCCCOc1ccc(C(C)(C)C)cc1NC(=O)c1nnn(-c2cccc(OC)c2)c1C					Not Active	Not Active			
COc1ccc(OC)c(-n2nnc(C(=O)Nc3cccc(N4CCOCC4)c3)c2C)c1			Not Active	Not Active	Not Active	Not Active			
CCCCOc1ccc(C(C)(C)C)cc1NC(=O)c1nnn(-c2cc(OC)cc(OC)c2)c1C				Not Active	Not Active	Not Active	32		
COc1ccc(OC)c(-n2nnc(C(=O)Nc3ccnc(C(C)(C)C)c3)c2C)c1			Not Active	Not Active		Not Active			
CCC[C@@H](C)Oc1ccc(C(C)(C)C)cc1NC(=O)c1nnn(-c2cc(C)ccc2OC)c1C					Not Active			8.1	11
CCCCOc1ccc(C(C)(C)C)cc1NC(=O)c1nnn(-c2cc(OC)ccc2F)c1C	18				Not Active	Not Active			
COc1ccc(OC)c(-n2nnc(C(=O)Nc3nc4ccccc4n3C)c2C)c1				Not Active		Not Active			
